Reference: patent publication EP1257544B1, “PIPERAZINE AND PIPERIDINE DERIVATIVES FOR TREATMENT OR PREVENTION OF NEURONAL DAMAGE” (VERTEX PHARMACEUTICALS INCORPORATED, priority 2000, dated 2001)
Where a name gives a salt, the structure may show the parent alone.

System: Dissociated VM cells
Test: Neuroprotection Assay (NMDA-induced neuroexcitotoxic injury, high affinity 3H-dopamine uptake)
Format: cell-based, Sprague-Dawley rat
Settings: embryonic day 15 rat ventral mesencephalic cultures, NMDA (100-400 µM) for 20 hours
Source text: The neuroprotective activity of the compounds of this invention may be assayed using rat embryo ventral mesencephalic cells in culture which are subsequently exposed to the glutamate receptor agonist NMDA. This assay is described in detail in the example section.
The ventral mesencephalic region was dissected out of embryonic day 15 Sprague-Dawley rat embryos (Harlan), dissociated into single cell suspension by a combination of trypsinization and trituration (Costantini et al., Neurobiol Dis., pp. 97-106 (1998). Dissociated VM cells were plated into poly-L-ornithine-coated 96-well plates at a density of 85,000 cells/well in 100 uL of DMEM supplemented with 18% heat-inactivated horse serum, 0.24% glucose, 2 mM glutamine and 50 u/ml pernicillin/streptomycin and incubated in a 5% CO2 incubator. After one day in culture (DIV1), the medium was replaced with 100 µL of a defined medium (DMEM supplemented with 1x N2 cocktail (Gibco-BRL), 0.12% glucose, 2 mM glutamine, and 50 units/ml penicillin/streptomycin) containing DMSO or various concentrations of the compounds of this invention. On DIV5, neuroexcitotoxic injury was induced by the addition of various concentrations of the glutamate receptor agonist NMDA (100-400 µM). Cultures were incubated with the neurotoxin for 20 hours and the effects of neurophilin compounds were assessed using high affinity ^3H-dopamine uptake according to a procedure published by Park and Mytilineou [Brain Res., 599, pp. 83-97 (1992)].

`CCN1CCCC[C@@H]1C(=O)N1CCN(C(c2ccccc2)c2ccccc2)CC1` [Compound 15, 1-[4-(1,1-Diphenylmethyl)piperazin-1-yl]-1-((R)-1-ethylpiperidin-2-yl)methanone] and `CCN1CCCC[C@H]1CN1CCN(C(c2ccccc2)c2ccccc2)CC1` [Compound 100, 1-Benzhydryl-4-((2S)-1-ethylpiperidin-2-ylmethyl)-piperazine] cannot be ordered by EC50: less than 100 nM for the first, less than 100 nM for the second.

`O=C([C@@H]1CCCN1Cc1ccc(F)cc1)N1CCC(Cc2ccccc2)CC1` [Compound 58, (4-Benzylpiperidin-1-yl)-[(2S)-1-(4-fluorobenzyl)-Pyrrolidin-2-yl]-methanone hydrochloride] and `O=C([C@@H]1CCCN1Cc1ccccc1)N1CCC(Cc2ccc(F)cc2)CC1` [Compound 49, ((2S)-1-Benzylpyrrolidin-2-yl)-[4-(4-fluorobenzyl)-piperidin-1-yl]-methanone hydrochloride] cannot be ordered by EC50: less than 100 nM for the first, less than 100 nM for the second.

`CCN1CCCC[C@H]1C(=O)N1CCN(C(c2ccccc2)c2nc(OC)cc(OC)n2)CC1` (some centres unmarked) [Compound 43] and `CCN1CCCC[C@H]1C(=O)N1CCN(Cc2ccccc2)CC1` [Compound 16, 1-(4-Benzylpiperazin-1-yl)-1-((S)-1-ethylpiperidin-2-yl)methanone] fall in the same range of EC50: 100 to 500 nM for the first, 100 to 500 nM for the second.

`CC(C)CN1CCC(C(=O)N2CCN(c3ccc(F)cc3)CC2)CC1` [Compound 264] and `CCN1CCC(C(=O)N2CCN(c3ccc(F)cc3)CC2)CC1` [Compound 226] fall in the same range of EC50: 100 to 500 nM for the first, 100 to 500 nM for the second.

`O=C([C@H]1CCCN1Cc1ccccc1)N1CCC(Cc2ccccc2)CC1` [Compound 55, (4-Benzylpiperidin-1-yl)-((2R)-1-benzylpyrrolidin-2-yl)methanone hydrochloride] and `O=C([C@@H]1CCCN1CCCc1ccccc1)N1CCC(Cc2ccccc2)CC1` [Compound 59, (4-Benzylpiperidin-1-yl)-[(2S)-1-(3-phenylpropyl) - pyrrolidin-2-yl]-methanone hydrochloride] fall in the same range of EC50: 100 to 500 nM for the first, 100 to 500 nM for the second.

`COc1ccc(CN2CCCC[C@H]2C(=O)N2CCN(C(c3ccccc3)c3ccccc3)CC2)cc1` [Compound 60, (4-Benzhydrylpiperazin-1-yl)-[(2S)-1-(4-methoxybenzyl)-piperidin-2-yl]-methanone dihydrochloride] and `O=C([C@@H]1CCCCN1Cc1ccc(F)cc1)N1CCN(C(c2ccccc2)c2ccccc2)CC1` [Compound 21, 1-[4-(1,1-Diphenyl-methyl)-piperazin-1-yl]-1-[(S)-1-(4-fluoro-benzyl)-piperidin-2-yl]-methanone] cannot be ordered by EC50: less than 100 nM for the first, less than 100 nM for the second.

First: CCN1CCCC[C@H]1C(=O)N1CCN(C(=O)c2ccc(F)cc2)CC1 [Compound 79, ((2S)-1-Ethylpiperidin-2-yl)-[4-(4-fluorobenzoyl)-piperazin-1-yl] methanone hydrochloride]
Second: CCN1CCCC[C@H]1C(=O)N1CCN(S(=O)(=O)c2ccc(F)cc2)CC1 [Compound 81, ((2S)-1-Ethylpiperidin-2-yl)-[4-(4-fluorobenzenesulfonyl)-piperazin-1-yl]-methanone hydrochloride]
The EC50 of the first is lower: 100 to 500 nM for the first, greater than 500 nM for the second.

Compared with `COC(=O)CO[C@@H]1C[C@@H](C(=O)N2CCC(Cc3ccccc3)CC2)N(Cc2ccccc2)C1` [Compound 155, [(2S, 4R)-1-Benzyl-5-(4-benzylpiperidine-1-carbonyl)-pyrrolidin-3-yloxyl]-acetic acid methyl ester], `O=C([C@@H]1C[C@@H](O)CN1Cc1ccccc1)N1CCC(Cc2ccccc2)CC1` [Compound 30, ((2S,4R) -1-Benzyl-4-hydroxypyrrolidin-2-yl)-(4-benzylpiperidin-1-yl)-methanone] is lower in EC50: greater than 500 nM for the first, less than 100 nM for the second.

Going from `CC(C)=CCN1CCC(C(=O)N2CCC(Cc3ccc(F)cc3)CC2)CC1` [Compound 276] to `C=CCN1CCC(C(=O)N2CCC(Cc3ccc(F)cc3)CC2)CC1` [Compound 274], the EC50 rises from less than 100 nM to greater than 500 nM. The first is the more potent here.

First: O=C([C@@H]1CCCN1Cc1ccccc1)N1CCC(=Cc2ccc(F)cc2)CC1 [Compound 85, ((2S)-1-Benzylpyrrolidin-2-yl)-[4-(4-fluorobenzylidene)piperidin-1-yl] methanone hydrochloride]
Second: O=C(C1CCN(Cc2ccccc2)CC1)N1CCN(c2ccc(F)cc2)CC1 [Compound 256]
The EC50 of the first is lower: less than 100 nM for the first, 100 to 500 nM for the second.

`CN1CCCC(C(=O)N2CCC(Cc3ccccc3)CC2)C1` (centres unmarked) [Compound 204] and `CCN1CCC(C(=O)N2CCC(Cc3ccc(F)cc3)CC2)CC1` [Compound 270] fall in the same range of EC50: 100 to 500 nM for the first, 100 to 500 nM for the second.

Compared with `CCN1CCCC[C@@H]1C(=O)N1CCN(C(c2ccc(F)cc2)c2ccc(F)cc2)CC1` [Compound 40, {4-[Bis-(4-fluorophenyl)methyl]-piperazin-1-yl}-((2R)-1-ethylpiperidin-2-yl)-methanone], `CCN1CCC[C@H]1C(=O)N1CCN(C(c2ccc(F)cc2)c2ccc(F)cc2)CC1` [Compound 50, 4-[Bis-(4-fluorophenyl)methyl]piperazin-1-yl}-((2S)-1-ethylpyrrolidin-2-yl)-methanone dihydrochloride] is lower in EC50: greater than 500 nM for the first, 100 to 500 nM for the second.

First: O=C(C1CCN(Cc2ccc(F)cc2)CC1)N1CCC(Cc2ccc(F)cc2)CC1 [Compound 257]
Second: CCN1CCCC[C@H]1C(=O)N1CCC(Cc2ccc(F)cc2)CC1 [Compound 47, ((2S)-1-Ethylpiperidin-2-yl)-[4-(4-fluorobenzyl)-piperidin-1-yl]-methanone hydrochloride]
The EC50 of the first is higher: 100 to 500 nM for the first, less than 100 nM for the second. The second is the more potent here.

Going from `CCN1CCCC[C@H]1C(=O)N1CCC(C(c2ccccc2)c2ccccc2)CC1` [Compound 44, (4-Benzhydrylpiperidin-1-yl)-((2S)-1-ethylpiperidin-2-yl)-methanone hydrochloride] to `CCN1CCCC[C@H]1C(=O)N1CCN(Cc2ccncc2)CC1` [Compound 37, ((2S)-1-Ethylpiperidin-2-yl)-(4-pyridin-4-ylmethylpiperazin-1-yl)-methanone trihydrochloride], the EC50 rises from less than 100 nM to greater than 500 nM. The first is the more potent here.

Compared with `C=CCN1CCC(C(=O)N2CCN(c3ccc(F)cc3)CC2)CC1` [Compound 258], `O=C(C1CCN(CC2CC2)CC1)N1CCN(c2ccc(F)cc2)CC1` [Compound 262] is lower in EC50: 100 to 500 nM for the first, less than 100 nM for the second. The second is the more potent here.

Compared with `O=C([C@@H]1CCCCN1CC1CC1)N1CCN(C(c2ccc(F)cc2)c2ccc(F)cc2)CC1` [Compound 63, {4-[Bis-(4-fluorophenyl)methyl]-piperazin-1-yl}-((2S)-1-cyclopropylmethyl-piperidin-2-yl)-methanone], `CCN1CCCC[C@H]1C(=O)N1CCN(Cc2ccc(Cl)c(Cl)c2)CC1` [Compound 69, [4-(3,4-Dichlorobenzyl)-piperazin-1-yl]-((2S)-1-ethylpiperidin-2-yl)-methanone dihydrochloride] is lower in EC50: greater than 500 nM for the first, less than 100 nM for the second. The second is the more potent here.
